{
  "source": "patent CN111909135A",
  "about": "“一种azd9291氘代物甲磺酸盐新盐型及其制备方法” (Tianjin University, priority 2020, dated 2020)",
  "key": {"[1]": {"test": "Water solubility of the crystal form at 25℃ (Chinese Pharmacopoeia 2015, part IV)", "assay_type": "physicochemical"}, "[2]": {"test": "Crystal form stability, high temperature (60℃) and accelerated (40℃, RH75%) tests", "assay_type": "physicochemical"}},
  "data": [
    {"smiles": "C=CC(=O)Nc1cc(Nc2nccc(-c3cn(C)c4ccccc34)n2)c(OC)cc1N(C)CCN(C)C", "note": "[AZD9291氘代物甲磺酸盐新盐型]", "values": [
      {"measurement": "increase in solubility relative to AZD9291 deuterated compound mesylate (WO2018214886A1 and CN201810495698.7)", "setting": "[1]", "value": 3, "unit": "fold"},
      {"measurement": "crystal form transformation (XRD)", "setting": "[2]; 40℃, RH75%, accelerated stability, 0, 5 and 10 days", "value": "未发生 晶型转变"},
      {"measurement": "appearance, colour and crystal form change", "setting": "[2]; high temperature (60℃, humidity not limited) and accelerated (40℃, RH75%), 5 and 10 days", "value": "外观色泽及晶 型均无变化"}
    ]}
  ]
}
